How the values were obtained:
Assay in all cases: relative viability (nuclei count vs DMSO), 5 days (fraction); higher = more cells survive
Pazopanib + Palbociclib = compound: Cc1ccc(Nc2nccc(N(C)c3ccc4c(C)n(C)nc4c3)n2)cc1S(N)(=O)=O [Pazopanib] + CC(=O)c1c(C)c2cnc(Nc3ccc(N4CCNCC4)cn3)nc2n(C2CCCC2)c1=O [Palbociclib] (partner 0.5 µM)
In short: (§1)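 A single step with final 0.05% Triton X-100, 1% formaldehyde and 1 ug/ml Hoechst fixed the cells and stained nuclei 5 days after treatment. Lung cancer cell lines in 1536-well plates had been treated by pin tool the day after seeding with one drug alone or a fixed anchor-drug dose plus five library-drug doses (not always all listed) in √10 steps, and nuclei were counted on 4× images. Relative viability is the ratio of nuclei in treated wells to nuclei in vehicle wells, taken as the median of duplicate plates.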

Ponatinib + Tozasertib = compound: Cc1ccc(C(=O)Nc2ccc(CN3CCN(C)CC3)c(C(F)(F)F)c2)cc1C#Cc1cnc2cccnn12 [Ponatinib] + Cc1cc(Nc2cc(N3CCN(C)CC3)nc(Sc3ccc(NC(=O)C4CC4)cc3)n2)n[nH]1 [Tozasertib] (partner 0.1 µM)
In short: as §1

Pazopanib + Navitoclax = compound: Cc1ccc(Nc2nccc(N(C)c3ccc4c(C)n(C)nc4c3)n2)cc1S(N)(=O)=O [Pazopanib] + CC1(C)CCC(c2ccc(Cl)cc2)=C(CN2CCN(c3ccc(C(=O)NS(=O)(=O)c4ccc(N[C@H](CCN5CCOCC5)CSc5ccccc5)c(S(=O)(=O)C(F)(F)F)c4)cc3)CC2)C1 [Navitoclax] (partner 0.5 µM)
In short: as §1

Pazopanib + Linsitinib = compound: Cc1ccc(Nc2nccc(N(C)c3ccc4c(C)n(C)nc4c3)n2)cc1S(N)(=O)=O [Pazopanib] + C[C@]1(O)C[C@@H](c2nc(-c3ccc4ccc(-c5ccccc5)nc4c3)c3c(N)nccn32)C1 [Linsitinib] (partner 1 µM)
In short: as §1

| Cell Line | relative viability (Pazopanib + Palbociclib; first compound 0.01 µM) | relative viability (Pazopanib + Palbociclib; first compound 0.03162 µM) | relative viability (Pazopanib + Palbociclib; first compound 0.1 µM) | relative viability (Pazopanib + Palbociclib; first compound 0.3162 µM) | relative viability (Pazopanib + Palbociclib; first compound 1 µM) | relative viability (Ponatinib + Tozasertib; first compound 0.002 µM) | relative viability (Ponatinib + Tozasertib; first compound 0.006325 µM) | relative viability (Ponatinib + Tozasertib; first compound 0.06325 µM) | relative viability (Ponatinib + Tozasertib; first compound 0.2 µM) | relative viability (Pazopanib + Navitoclax; first compound 0.01 µM) | relative viability (Pazopanib + Navitoclax; first compound 0.03162 µM) | relative viability (Pazopanib + Navitoclax; first compound 0.1 µM) | relative viability (Pazopanib + Navitoclax; first compound 0.3162 µM) | relative viability (Pazopanib + Navitoclax; first compound 1 µM) | relative viability (Pazopanib + Linsitinib; first compound 0.01 µM) | relative viability (Pazopanib + Linsitinib; first compound 0.03162 µM) | relative viability (Pazopanib + Linsitinib; first compound 0.1 µM) | relative viability (Pazopanib + Linsitinib; first compound 0.3162 µM) | relative viability (Pazopanib + Linsitinib; first compound 1 µM) |
| --- | --- | --- | --- | --- | --- | --- | --- | --- | --- | --- | --- | --- | --- | --- | --- | --- | --- | --- | --- |
| SK-LU-1 | 0.393 | 0.389 | 0.411 | 0.425 | 0.455 | 0.349 | 0.419 | 0.321 | 0.218 | 0.828 | 0.898 | 0.994 | 0.964 | 0.749 | 1.02 | 1.22 | 1.17 | 1.27 | 1.11 |
| LXF-289 | 0.591 | 0.581 | 0.629 | 0.571 | 0.598 | 0.205 | 0.262 | 0.21 | 0.148 | 0.994 | 1.03 | 0.95 | 0.934 | 0.991 | 0.973 | 0.957 | 0.921 | 0.93 | 0.98 |
| PC-3 [JPC-3] |  | 0.556 | 0.341 | 0.522 | 0.519 | 0.851 | 0.822 | 0.951 | 0.824 | 0.762 | 0.794 | 0.904 | 0.723 | 0.793 | 0.993 | 0.972 | 0.961 | 0.918 | 0.961 |
| NCI-H1666 | 0.636 | 0.604 | 0.607 | 0.694 | 0.667 | 0.707 | 0.627 | 0.669 | 0.548 | 1.06 | 0.975 | 0.926 | 1.22 | 1.01 | 1.15 | 0.857 | 0.909 | 0.767 | 1.07 |
| NCI-H2085 | 0.483 | 0.462 | 0.487 | 0.48 | 0.462 | 0.722 | 0.849 | 0.662 | 0.576 | 1.18 | 1.22 | 1.26 | 1.15 | 1.31 | 0.818 | 0.862 | 0.901 | 0.797 | 0.887 |
| NCI-H1734 | 0.33 | 0.369 | 0.353 | 0.378 | 0.344 | 0.267 | 0.293 | 0.217 | 0.26 | 0.796 | 0.795 | 0.854 | 0.875 | 0.901 | 0.823 | 0.963 | 0.905 | 0.942 | 0.933 |
| NCI-H2126 | 0.337 | 0.322 | 0.354 | 0.361 | 0.361 | 0.868 | 0.836 | 0.954 | 0.754 | 0.798 | 0.779 | 0.848 | 0.817 | 0.881 | 0.563 | 0.734 | 0.749 | 0.677 | 0.774 |
| EMC-BAC-2 |  | 0.522 | 0.488 | 0.511 | 0.492 | 0.285 | 0.275 | 0.277 | 0.239 | 1.04 | 1.21 | 1.15 | 1.15 | 1.15 | 0.758 | 0.855 | 0.864 | 0.84 | 0.803 |
| NCI-H1993 |  | 0.617 | 0.631 | 0.517 | 0.616 | 0.639 | 0.635 | 0.582 | 0.555 | 0.734 | 0.735 | 0.988 | 1.01 | 0.889 | 0.717 | 0.757 | 0.726 | 0.638 | 0.852 |
